Among the data in US8859535B2, “Hydroxy substituted isoquinolinone derivatives” (Novartis AG, priority 2011, dated 2014) are IC50 values, retold here.

Type in all cases: binding
In assay [1] the target is T1, human MDM2 protein (amino acids 2-188) (Homo sapiens, UniProt Q00987).
T1 construct: human MDM2 protein (amino acids 2-188); made in house
Kind of assay: p53-MDM2 TR-FRET assay, modified (p53-MDM2 Assay 2). The note with it: 0.1 nM MDM2, 0.1 nM Europium labeled streptavidin; read-out: IC50 (nM) of p53-Hdm2 inhibition (TR-FRET) Assay 2. As for the experimental part: Time Resolved Fluorescence Energy Transfer (TR-FRET) Assay
The inhibition of p53-MDM2 and p53-MDM4 interactions is measured by time resolved fluorescence energy transfer (TR-FRET). Fluorescence energy transfer (or Foerster resonance energy transfer) describes an energy transfer between donor and acceptor fluorescent molecules. For this assay, human MDM2 protein (amino acids 2-188) and human MDM4 protein (amino acids 2-185), tagged with a C-terminal biotin moiety, are used in combination with a Europium labeled streptavidin (Perkin Elmer, Inc., Waltham, Mass., USA) serving as the donor fluorophore. The p53 derived, Cy5 labeled peptide Cy5-TFSDLWKLL (p53 aa18-26) is the energy acceptor. Upon excitation of the donor molecule at 340 nm, binding interaction between MDM2 or MDM4 and the p53 peptide induces energy transfer and enhanced response at the acceptor emission wavelength at 665 nm. Disruption of the formation of the p53-MDM2 or p53-MDM4 complex due to an inhibitor molecule binding to the p53 binding site of MDM2 or MDM4 results in increased donor emission at 620 nm. The ratiometric FRET assay readout is calculated from the raw data of the two distinct fluorescence signals measured in time resolved mode (fluorescence 665 nm/fluorescence 620 nm×1000).
After addition of 1.25 nM MDM2-biotinylated or 2.5 nM MDM4-biotinylated (internal preparations), and 0.625 nM Europium labeled streptavidin (Perkin Elmer), the solution is pre-incubated for 15 minutes at room temperature, then 10 nM Cy5-p53 peptide (internal preparation) is added before an incubation at room temperature for 15 minutes prior to reading the plate. For measurement of samples, a Victor II microplate reader (Perkin Elmer) is used with the following settings: Excitation 340 nm, Emission Donor 620 nm and Emission Acceptor 665 nm. IC50 values are calculated by curve fitting using XLfit. If not specified, reagents are purchased from Sigma-Aldrich Chemie GmBH, Buchs, Switzerland.
This assay was used to evaluate compounds displaying inhibition of p53-MDM2 interaction and p53-MDM4 interaction at IC50s of 0.005 to 50 μM (p53-MDM2 Assay 1 and p53-MDM4 Assay 1, respectively). For selected compounds displaying IC50s between […] on MDM2, a slightly modified assay is used with the following adaptations: 0.1 nM MDM2, 0.1 nM Europium labeled streptavidin and Tecan genios Pro is used as a microplate reader for the fluorescence measurements (p53-MDM2 Assay 2).
A general note: TR-FRET usually uses a lanthanide donor and a delayed reading to cut background.

Assay [2] deals with T1, human MDM2 protein (amino acids 2-188). Kind of assay: p53-MDM2 TR-FRET assay (p53-MDM2 Assay 1). The note with it: 1.25 nM MDM2-biotinylated, 10 nM Cy5-p53 peptide; read-out: IC50 (μM) of p53-Hdm2 inhibition (TR-FRET) Assay 1. Put shortly: (§1)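 Peptide displacement read as 665/620 nm TR-FRET ratio (excitation 340 nm) after 15 min room temperature with 10 nM Cy5-p53 aa18-26, following 15 min preincubation of Eu-streptavidin (0.625 nM) with biotinylated MDM4 aa 2-185 (2.5 nM) or MDM2 aa 2-188 (1.25 nM); IC50 curve-fitted. MDM2 Assay 2: MDM2 and Eu-streptavidin each 0.1 nM.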

In assay [3] the target is T2, human MDM4 protein (amino acids 2-185) (Homo sapiens, UniProt O15151).
T2 construct: human MDM4 protein (amino acids 2-185); made in house
T2 sequence (O15151 2-185): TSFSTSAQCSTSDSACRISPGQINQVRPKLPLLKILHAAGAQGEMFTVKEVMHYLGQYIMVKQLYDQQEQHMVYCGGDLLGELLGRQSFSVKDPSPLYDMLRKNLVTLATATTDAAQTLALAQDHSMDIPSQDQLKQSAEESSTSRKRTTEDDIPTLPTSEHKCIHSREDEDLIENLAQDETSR
Kind of assay: p53-MDM4 TR-FRET assay (p53-MDM4 Assay 1). To be noted: 2.5 nM MDM4-biotinylated, 10 nM Cy5-p53 peptide; read-out: IC50 (μM) of p53-Hdm4 inhibition (TR-FRET) Assay 1. Put shortly: as §1

T1 sequence (Q00987 2-188): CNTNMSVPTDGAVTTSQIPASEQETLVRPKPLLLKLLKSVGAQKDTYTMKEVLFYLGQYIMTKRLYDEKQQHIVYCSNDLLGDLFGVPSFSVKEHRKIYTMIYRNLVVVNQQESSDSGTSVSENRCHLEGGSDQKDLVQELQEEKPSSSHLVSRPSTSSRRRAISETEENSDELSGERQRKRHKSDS

Take `[2H]C([2H])([2H])Oc1cc2c(cc1OC(C)C)[C@H](c1ccc(Cl)cc1)N(c1ccc(C(C)(O)C3CCS(=O)(=O)CC3)cc1)C(=O)C2` (mixture of isomers) [Example 150, (S)-1-(4-Chloro-phenyl)-2-{4-[1-(1,1-dioxo-hexahydro-1-thiopyran-4-yl)-1-hydroxy-ethyl]-phenyl}-7-isopropoxy-6-d^3-methoxy-1,4-dihydro-2H-isoquinolin-3-one]: the IC50 (as a rule, the concentration at which inhibition is half-maximal) in assay [1] stood at 4.43 nM.

As for `COc1cc2c(cc1OC(C)C)[C@H](c1ccc(Cl)cc1)N(c1ccc([C@](C)(O)C3CCN(C=O)CC3)cc1)C(=O)C2` (single isomer, unassigned) [Example 124], in assay [1], the IC50 was 150 nM.

In the case of `COc1cc2c(cc1OC(C)C)[C@H](c1ccc(Cl)cc1)N(c1ccc([C@@](C)(O)C3CCN(C=O)CC3)cc1)C(=O)C2` (single isomer, unassigned) [Example 125], the IC50 in assay [1] was found to be 0.746 nM.

Turning to `COc1cc2c(cc1OC(C)C)[C@H](c1ccc(Cl)cc1)N(c1ccc([C@](C)(O)C3CCN(C4COC4)CC3)cc1)C(=O)C2` (single isomer, unassigned) [Example 126], the IC50 in assay [1] was determined as 58.6 nM.

In the case of `COc1cc2c(cc1OC(C)C)[C@H](c1ccc(Cl)cc1)N(c1ccc([C@@](C)(O)C3CCN(C4COC4)CC3)cc1)C(=O)C2` (single isomer, unassigned) [Example 127], the IC50 in assay [1] was determined as 0.935 nM.

Turning to `COc1cc2c(cc1OC(C)C)[C@H](c1ccc(Cl)cc1)N(c1ccc([C@@](C)(O)C3CCN(C(=O)COC(C)=O)CC3)cc1)C(=O)C2` (single isomer, unassigned) [Example 128], the IC50 in assay [1] is 1.34 nM.

`COc1cc2c(cc1OC(C)C)[C@H](c1ccc(Cl)cc1)N(c1ccc(C(C)(O)C34CCC(CC3)C4)cc1)C(=O)C2` (stereo partly drawn) [Example 138, (S)-2-[4-(1-Bicyclo[2.2.1]hept-1-yl-1-hydroxy-ethyl)-phenyl]-1-(4-chloro-phenyl)-7-isopropoxy-6-methoxy-1,4-dihydro-2H-isoquinolin-3-one]: the IC50 was 0.0062 µM in assay [2] and 7.54 µM in assay [3].

Turning to `COCCOc1cc2c(cc1OC(C)C)[C@H](c1ccc(Cl)cc1)N(c1ccc(C(C)(O)C3CCOCC3)cc1)C(=O)C2` (stereo partly drawn) [Example 145, (S)-1-(4-Chloro-phenyl)-2-{4-[1-hydroxy-1-(tetrahydro-pyran-4-yl)-ethyl]-phenyl}-7-isopropoxy-6-(2-methoxy-ethoxy)-1,4-dihydro-2H-isoquinolin-3-one], the IC50 in assay [2] was 0.0083 µM; in assay [3], 3 µM.

Consider `CC(C)Oc1cc2c(cc1OCc1ccccn1)CC(=O)N(c1ccc(C(C)(O)C3CCOCC3)cc1)[C@H]2c1ccc(Cl)cc1` (stereo partly drawn) [Example 146, (S)-1-(4-Chloro-phenyl)-2-{4-[1-hydroxy-1-(tetrahydro-pyran-4-yl)-ethyl]-phenyl}-7-isopropoxy-6-(pyridin-2-ylmethoxy)-1,4-dihydro-2H-isoquinolin-3-one], for which the IC50 in assay [2] came to 0.005 µM; in assay [3] it was 1.19 µM.

Consider `CC(C)Oc1cc2c(cc1OCC1COC1)CC(=O)N(c1ccc(C(C)(O)C3CCOCC3)cc1)[C@H]2c1ccc(Cl)cc1` (stereo partly drawn) [Example 147, (S)-1-(4-Chloro-phenyl)-2-{4-[1-hydroxy-1-(tetrahydro-pyran-4-yl)-ethyl]-phenyl}-7-isopropoxy-6-(oxetan-3-ylmethoxy)-1,4-dihydro-2H-isoquinolin-3-one], for which the IC50 in assay [2] was found to be 0.0086 µM; in assay [3], 3.05 µM.

`CNC(=O)COc1cc2c(cc1OC(C)C)[C@H](c1ccc(Cl)cc1)N(c1ccc(C(C)(O)C3CCOCC3)cc1)C(=O)C2` (stereo partly drawn) [Example 148, 2-((S)-1-(4-Chloro-phenyl)-2-{4-[1-hydroxy-1-(tetrahydro-pyran-4-yl)-ethyl]-phenyl}-7-isopropoxy-3-oxo-1,2,3,4-tetrahydro-isoquinolin-6-yloxy)-N-methyl-acetamide]: the values for the IC50 in assay [2] and in assay [3] were 0.0067 µM and 2.64 µM, respectively.

With `CC(C)Oc1cc2c(cc1OCC(=O)N(C)C)CC(=O)N(c1ccc(C(C)(O)C3CCOCC3)cc1)[C@H]2c1ccc(Cl)cc1` (stereo partly drawn) [Example 149, 2-((S)-1-(4-Chloro-phenyl)-2-{4-[1-hydroxy-1-(tetrahydro-pyran-4-yl)-ethyl]-phenyl}-7-isopropoxy-3-oxo-1,2,3,4-tetrahydro-isoquinolin-6-yloxy)-N,N-dimethyl-acetamide], the IC50 in assay [2] worked out at 0.0101 µM; in assay [3], 5.53 µM.

On to `COc1cc2c(cc1OC(C)C)[C@H](c1ccc(Cl)cc1)N(c1ccc(C(C)(O)C3CC(C)(C)OC(C)(C)C3)cc1)C(=O)C2` (some centres unmarked) [Example 162], for which the IC50 in assay [2] was determined as 0.0065 µM; in assay [3], 5.53 µM.

As to `COc1cc2c(cc1OC(C)C)[C@H](c1ccc(Cl)cc1)N(c1ccc(C(C)(O)C3CCS(=O)(=O)CC3)cc1)C(=O)C2` (stereo partly drawn) [Example 166, (S)-1-(4-Chloro-phenyl)-2-{4-[1-(1,1-dioxo-hexahydro-1-thiopyran-4-yl)-1-hydroxy-ethyl]-phenyl}-7-isopropoxy-6-methoxy-1,4-dihydro-2H-isoquinolin-3-one], the concentration for half-maximal inhibition (IC50) in assay [2] came out at 0.00735 µM; in assay [3] it was 7.78 µM.

Turning to `COc1cc2c(cc1OC(C)C)[C@H](c1ccc(Cl)cc1)N(c1ccc([C@](C)(O)C3CCS(=O)(=O)CC3)cc1)C(=O)C2` [Example 167, (S)-1-(4-Chloro-phenyl)-2-{4-[(R)-1-(1,1-dioxo-hexahydro-1-thiopyran-4-yl)-1-hydroxy-ethyl]-phenyl}-7-isopropoxy-6-methoxy-1,4-dihydro-2H-isoquinolin-3-one], the 50% inhibitory concentration (IC50) was determined as 0.125 µM in assay [2] and 51.1 µM in assay [3].

As to `COc1cc2c(cc1OC(C)C)[C@H](c1ccc(Cl)cc1)N(c1ccc(C(C)(O)C3CC[S+]([O-])CC3)cc1)C(=O)C2` (stereo partly drawn) [Example 169, (S)-1-(4-Chloro-phenyl)-2-{4-[1-hydroxy-1-(1-oxo-hexahydro-1-thiopyran-4-yl)-ethyl]-phenyl}-7-isopropoxy-6-methoxy-1,4-dihydro-2H-isoquinolin-3-one], the IC50 in assay [2] was determined as 0.0096 µM; in assay [3], 8.3 µM.

Regarding `COc1cc2c(cc1OC(C)C)[C@H](c1ccc(Cl)cc1)N(c1ccc([C@](C)(O)C3CC[S+]([O-])CC3)cc1)C(=O)C2` (stereo partly drawn) [Example 170, (S)-1-(4-Chloro-phenyl)-2-{4-[(R)-1-hydroxy-1-(1-oxo-hexahydro-thiopyran-4-yl)-ethyl]-phenyl}-7-isopropoxy-6-methoxy-1,4-dihydro-2H-isoquinolin-3-one], the values for the IC50 in assay [2] and in assay [3] were 0.168 µM and 62.5 µM, respectively.

For the molecule `COc1cc2c(cc1OC(C)C)[C@H](c1ccc(Cl)cc1)N(c1ccc([C@@](C)(O)C3CC[S+]([O-])CC3)cc1)C(=O)C2` (stereo partly drawn) [Example 171, (S)-1-(4-Chloro-phenyl)-2-{4-[(S)-1-hydroxy-1-(1-oxo-hexahydro-1-thiopyran-4-yl)-ethyl]-phenyl}-7-isopropoxy-6-methoxy-1,4-dihydro-2H-isoquinolin-3-one], the half-inhibitory concentration (IC50) in assay [2] is 0.0031 µM; in assay [3], 4.4 µM.

In the case of `COc1cc2c(cc1OC(C)C)[C@H](c1ccc(Cl)cc1)N(c1ccc([C@](C)(O)C3CC4CCC(C3)S4(=O)=O)cc1)C(=O)C2` (stereo partly drawn) [Example 173, (S)-1-(4-Chloro-phenyl)-2-{4-[(R)-1-(8,8-dioxo-8-thia-bicyclo[3.2.1]oct-3-yl)-1-hydroxy-ethyl]-phenyl}-7-isopropoxy-6-methoxy-1,4-dihydro-2H-isoquinolin-3-one], the IC50 in assay [2] came out at 0.0943 µM; in assay [3], 41.4 µM.
